Laboratory results reported in paper PMC11243149, “Assessing the Effects of Thiazole-Carboxamide Derivatives on the Biophysical Properties of AMPA Receptor Complexes as a Potential Neuroprotective Agent” (Molecules, 2024).
Where two headings read alike, the source gives them in different places.

What was measured:
Assay type in all cases: cell-based
[1] = target: T1, GluA2 (Homo sapiens, UniProt P42262); assay: Whole-cell patch-clamp recordings of homomeric GluA2 AMPAR in transfected HEK293T cells; conditions: for Amplitude (glutamate plus TC compound): 10 mM glutamate + TC compound (12 µM optimal concentration), HEK293T, -60 mV, pH 7.4, 22 °C, mean ± SEM; for Amplitude (glutamate plus TC compound) / Amplitude, applying glutamate alone after TC compound: n = 10; for Amplitude, applying glutamate alone after TC compound: 10 mM glutamate alone after 20 s wash following the TC compound; for A/AI: ratio of current with glutamate alone (A) to inhibited current after TC compound (AI); for t deact: weighted tau of deactivation, 10 mM glutamate for 1 ms, glutamate alone 2.3±0.1; for t deact / t des: with TC compound; for t des: weighted tau of desensitization, 10 mM glutamate 500 ms, glutamate alone 2.6±0.1
T1 construct: expressed in transfected cells; host or cells: HEK293T
Procedure: (§1) The effect of five TC compounds on whole-cell currents of four AMPAR subunits (GluA1, GluA1/2, GluA2, and GluA2/3) was investigated using transfected HEK293T cells. Each compound was applied separately to each subunit, with experiments conducted on 8–10 cells per condition to ensure reproducibility. […] At a glutamate concentration of 10 mM and a 500 ms protocol, approximately 95% of AMPAR channels were open. The A/AI ratio was calculated to compare the results, where A represents normalized current readings and AI indicates the inhibited current following TC compound exposure. […] Following closely, TC-1 inhibited the tested subunits by 5-fold.
(§2) The IC50 values were examined using GraphPad Prism software 9.5.0.730 (x64) (Table S6), which confirmed these findings. The IC50 values of TC substances were calculated by standardizing the peak current amplitudes using data obtained from 8–10 cells. Following a 500 ms exposure to the compounds, the cells were rinsed with glutamate for 20 s. Next, a solution containing just glutamate at a concentration of 10 mM was administered, and the resulting immediate induced electrical current was measured and documented (Figure 3).
(§3) In addition, an evaluation was conducted on the deactivation rates (τw deact) of all the examined chemicals to investigate their impact on the kinetics of deactivation. The chemicals were assessed for their effect on the deactivation kinetics of AMPAR subunits by briefly administering 10 mM glutamate for 1 ms to begin currents. This experimental setup allowed for the observation of τw deact under controlled conditions. […] TC-5 induced an approximately 2-fold increase in τw deact across all four tested subunits. […] These findings highlight the differential impact of TC compounds on deactivation kinetics across AMPAR subunits, shedding light on their potential neuroprotective mechanisms.
(§4) The flip isoform was uniformly employed across all AMPAR subunits in this study. These subunits were subcloned into the pRK vector and expressed in Human Embryonic kidney cells sourced (Sigma, München, Germany). HEK293T cells were grown in Dulbecco Modified Eagle Medium (DMEM) (Sigma, München, Germany) containing 10% FBS (fetal bovine serum), 0.1 mg/mL streptomycin, and 1 mM sodium pyruvate (Biological Industries; Beit-Haemek, Israel). HEK293T cells were incubated at 37 °C and 5% CO2 was supplemented to the medium. It was subcultured twice a week until cells reached pass #20. The transfection reagent used was either jetPRIME (Polyplus: New York, NY, USA) or Lipofectamine 2000 (Invitrogen; San Diego, CA, USA). Cells were kept for 36 h. after transfection in 12-well plates. Then, they were replated on coverslips coated with Laminin (1 mg/mL; Sigma, Germany) for electrophysiology recordings. Cells were then seeded in Petri dishes in DMEM supplemented with 10% fetal calf serum and antibiotics and maintained in a humidified incubator at 37 °C and 5% CO2. Highly fluorescent cells were identified and selected for recording post-transfection.
(§5) HEK293T cells were recorded for 36–48 h, at a temperature of 22 °C, with a membrane potential of −60 mV. HEK293T cells were recorded 36–48 h after transfection using IPA (Integrated Patch Amplifier) via the […], at a temperature of 22 °C, with a membrane potential of −60 mV. SutterPatch Software v. 1.1.1 (Sutter Instruments, Novato, CA, USA) was used to digitize membrane currents for a short period. The sampling frequency was set to 10 kHz, and the low-pass filter was set to 2 kHz. Borosilicate glass was used to fabricate the patch electrodes with a resistance of 2–4 MΩ. The extracellular solution contained the following (values are in mM): 150 NaCl, 2.8 KCl, 0.5 MgCl2, 2 CaCl2, and 10 HEPES, adjusted to pH 7.4 with NaOH. The pipette solution contained the following (values are in mM): 110 CsF, 30 CsCl, 4 NaCl, 0.5 CaCl2, 10 […], and 10 HEPES, adjusted to pH 7.2 with CsOH. […]

[2] = target: T2, GluA1/2 (Homo sapiens, UniProt P42261+P42262); assay: Whole-cell patch-clamp recordings of heteromeric GluA1/2 AMPAR in transfected HEK293T cells; conditions: for Amplitude (glutamate plus TC compound): 10 mM glutamate + TC compound (12 µM optimal concentration), HEK293T, -60 mV, pH 7.4, 22 °C, mean ± SEM; for Amplitude (glutamate plus TC compound) / Amplitude, applying glutamate alone after TC compound: n = 10; for Amplitude, applying glutamate alone after TC compound: 10 mM glutamate alone after 20 s wash following the TC compound; for A/AI: ratio of current with glutamate alone (A) to inhibited current after TC compound (AI); for t deact: weighted tau of deactivation, 10 mM glutamate for 1 ms, glutamate alone 2.5±0.3; for t deact / t des: with TC compound; for t des: weighted tau of desensitization, 10 mM glutamate 500 ms, glutamate alone 5.2±0.5
T2 construct: expressed in transfected cells; host or cells: HEK293T
Procedure: as §1, §2, §3, §4, §5

[3] = target: T3, GluA1 (Homo sapiens, UniProt P42261); assay: Whole-cell patch-clamp recordings of homomeric GluA1 AMPAR in transfected HEK293T cells; conditions: for Amplitude (glutamate plus TC compound) / Amplitude, applying glutamate alone after TC compound / IC50 / A/AI / t deact / t des: GluA1; for Amplitude (glutamate plus TC compound): 10 mM glutamate + TC compound (12 µM optimal concentration), HEK293T, -60 mV, pH 7.4, 22 °C, mean ± SEM; for Amplitude (glutamate plus TC compound) / Amplitude, applying glutamate alone after TC compound: n = 10; for Amplitude, applying glutamate alone after TC compound: 10 mM glutamate alone after 20 s wash following the TC compound; for A/AI: ratio of current with glutamate alone (A) to inhibited current after TC compound (AI); for t deact: weighted tau of deactivation, 10 mM glutamate for 1 ms, glutamate alone 2.1±0.1; for t deact / t des: with TC compound; for t des: weighted tau of desensitization, 10 mM glutamate 500 ms, glutamate alone 2.5±0.1; for influence on τw des: GluA1 subunit
T3 construct: expressed in transfected cells; host or cells: HEK293T
Procedure: as §1, §2, §3, §4, §5

[4] = target: T4, GluA2/3 (Homo sapiens, UniProt P42262+P42263); assay: Whole-cell patch-clamp recordings of heteromeric GluA2/3 AMPAR in transfected HEK293T cells; conditions: for Amplitude (glutamate plus TC compound): 10 mM glutamate + TC compound (12 µM optimal concentration), HEK293T, -60 mV, pH 7.4, 22 °C, mean ± SEM; for Amplitude (glutamate plus TC compound) / Amplitude, applying glutamate alone after TC compound: n = 10; for Amplitude, applying glutamate alone after TC compound: 10 mM glutamate alone after 20 s wash following the TC compound; for A/AI: ratio of current with glutamate alone (A) to inhibited current after TC compound (AI); for t deact: weighted tau of deactivation, 10 mM glutamate for 1 ms, glutamate alone 2.6±0.3; for t deact / t des: with TC compound; for t des: weighted tau of desensitization, 10 mM glutamate 500 ms, glutamate alone 2.7±0.2
T4 construct: expressed in transfected cells; host or cells: HEK293T
Procedure: as §1, §2, §3, §4, §5

[5] = Table S6, read-out: Log IC50 (converted)
[6] = Table S6, peak current amplitudes, 8-10 cells, GraphPad Prism fit, read-out: IC50

T4 sequence (P42262 25-883 isoform P42262-2 limits assumed): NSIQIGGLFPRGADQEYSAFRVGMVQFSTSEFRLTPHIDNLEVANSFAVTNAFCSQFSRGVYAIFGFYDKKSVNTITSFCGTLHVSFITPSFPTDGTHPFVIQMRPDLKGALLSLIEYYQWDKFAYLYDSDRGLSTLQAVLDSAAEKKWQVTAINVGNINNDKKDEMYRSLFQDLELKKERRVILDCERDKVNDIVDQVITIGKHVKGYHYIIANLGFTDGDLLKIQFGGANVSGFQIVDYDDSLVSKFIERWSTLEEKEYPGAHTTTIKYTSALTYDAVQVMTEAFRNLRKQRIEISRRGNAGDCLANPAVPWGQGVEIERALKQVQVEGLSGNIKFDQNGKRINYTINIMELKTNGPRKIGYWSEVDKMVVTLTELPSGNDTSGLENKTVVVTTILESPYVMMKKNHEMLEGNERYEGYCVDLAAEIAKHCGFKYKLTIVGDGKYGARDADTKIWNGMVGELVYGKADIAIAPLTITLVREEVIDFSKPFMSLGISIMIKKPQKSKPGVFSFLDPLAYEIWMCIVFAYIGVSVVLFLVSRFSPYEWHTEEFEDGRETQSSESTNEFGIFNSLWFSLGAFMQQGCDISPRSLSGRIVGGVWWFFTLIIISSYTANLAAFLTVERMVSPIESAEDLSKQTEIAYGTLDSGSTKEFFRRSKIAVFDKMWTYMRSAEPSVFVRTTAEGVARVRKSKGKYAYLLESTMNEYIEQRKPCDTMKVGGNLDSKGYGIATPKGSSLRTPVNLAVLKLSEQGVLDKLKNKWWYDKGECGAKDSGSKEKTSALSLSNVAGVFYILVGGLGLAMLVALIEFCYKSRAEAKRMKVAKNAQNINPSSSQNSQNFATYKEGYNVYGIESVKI
T4 sequence (P42263 29-894 isoform P42263-2 limits assumed): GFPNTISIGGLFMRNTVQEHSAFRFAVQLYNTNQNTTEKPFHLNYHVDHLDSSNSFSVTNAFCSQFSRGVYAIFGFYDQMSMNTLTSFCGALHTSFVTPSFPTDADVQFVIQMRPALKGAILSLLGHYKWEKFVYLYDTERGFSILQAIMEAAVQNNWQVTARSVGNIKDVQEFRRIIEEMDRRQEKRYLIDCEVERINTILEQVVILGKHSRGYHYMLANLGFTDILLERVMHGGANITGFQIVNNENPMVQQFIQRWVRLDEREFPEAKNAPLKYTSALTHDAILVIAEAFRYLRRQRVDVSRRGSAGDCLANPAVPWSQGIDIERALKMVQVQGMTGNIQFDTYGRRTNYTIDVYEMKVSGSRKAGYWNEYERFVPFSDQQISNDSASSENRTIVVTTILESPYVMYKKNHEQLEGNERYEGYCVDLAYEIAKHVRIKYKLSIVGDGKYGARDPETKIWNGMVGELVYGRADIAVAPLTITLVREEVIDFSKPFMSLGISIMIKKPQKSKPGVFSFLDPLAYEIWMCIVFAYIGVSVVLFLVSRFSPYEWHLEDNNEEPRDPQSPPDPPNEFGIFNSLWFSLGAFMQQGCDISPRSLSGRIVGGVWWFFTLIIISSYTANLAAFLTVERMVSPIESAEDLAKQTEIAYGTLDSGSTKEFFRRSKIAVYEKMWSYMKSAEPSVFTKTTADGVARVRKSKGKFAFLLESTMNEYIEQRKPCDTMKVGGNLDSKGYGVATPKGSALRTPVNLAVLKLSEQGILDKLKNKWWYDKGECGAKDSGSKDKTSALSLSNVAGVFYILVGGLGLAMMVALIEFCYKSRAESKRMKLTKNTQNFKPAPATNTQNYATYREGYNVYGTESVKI
T1 sequence (P42262 25-883 isoform P42262-2 limits assumed, species assumed): as the sequence (P42262 25-883 isoform P42262-2 limits assumed) above
T2 sequence (P42261 19-906 isoform P42261-2 limits assumed): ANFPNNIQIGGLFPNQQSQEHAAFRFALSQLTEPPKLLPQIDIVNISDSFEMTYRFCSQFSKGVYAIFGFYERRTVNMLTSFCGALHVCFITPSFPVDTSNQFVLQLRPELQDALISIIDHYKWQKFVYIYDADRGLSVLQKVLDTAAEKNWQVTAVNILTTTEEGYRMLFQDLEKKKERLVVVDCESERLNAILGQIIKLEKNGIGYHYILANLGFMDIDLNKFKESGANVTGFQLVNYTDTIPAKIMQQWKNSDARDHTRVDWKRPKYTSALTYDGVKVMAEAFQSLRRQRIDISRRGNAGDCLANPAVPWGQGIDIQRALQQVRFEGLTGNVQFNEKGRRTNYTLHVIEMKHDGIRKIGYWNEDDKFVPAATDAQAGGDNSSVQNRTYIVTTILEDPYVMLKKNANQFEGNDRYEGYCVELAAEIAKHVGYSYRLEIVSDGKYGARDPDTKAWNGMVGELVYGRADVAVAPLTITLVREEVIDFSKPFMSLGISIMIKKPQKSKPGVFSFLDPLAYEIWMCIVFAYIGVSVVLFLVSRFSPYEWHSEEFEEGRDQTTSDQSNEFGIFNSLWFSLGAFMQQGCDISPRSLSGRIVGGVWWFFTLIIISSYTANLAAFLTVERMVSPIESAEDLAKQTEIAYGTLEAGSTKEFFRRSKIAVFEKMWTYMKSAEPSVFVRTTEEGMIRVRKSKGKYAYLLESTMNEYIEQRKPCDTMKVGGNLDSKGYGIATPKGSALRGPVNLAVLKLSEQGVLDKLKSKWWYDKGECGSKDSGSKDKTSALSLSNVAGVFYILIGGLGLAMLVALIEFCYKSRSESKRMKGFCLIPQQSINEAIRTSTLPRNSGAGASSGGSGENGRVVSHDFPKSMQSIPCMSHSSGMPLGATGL
T2 sequence (P42262 25-883 isoform P42262-2 limits assumed): as the sequence (P42262 25-883 isoform P42262-2 limits assumed) above
T3 sequence (P42261 19-906 isoform P42261-2 limits assumed, species assumed): as the sequence (P42261 19-906 isoform P42261-2 limits assumed) above

Amplitude (glutamate plus TC compound) [1] [pA] | Amplitude, applying glutamate alone after TC compound [1] [pA] | IC50 [1, 5] [µM] | A/AI [1] | t deact [1] [ms] | Amplitude (glutamate plus TC compound) [2] [pA] | Amplitude, applying glutamate alone after TC compound [2] [pA] | IC50 [2, 6] [µM] | IC50 [2, 5] [µM] | A/AI [2] | t deact [2] [ms] | Amplitude (glutamate plus TC compound) [3] [pA] | Amplitude, applying glutamate alone after TC compound [3] [pA] | IC50 [3, 6] [µM] | IC50 [3, 5] [µM] | A/AI [3] | t deact [3] [ms] | Compound | t des [1] [ms] | t des [2] [ms] | t des [3] [ms] | other results
233±20 | 1137±97 | 3.31 | 5.03±0.04 | 5.9 ± 0.2 | 126±12 | 604±62 | 3.36 | 3.39 | 4.98±0.06 | 5.8 ± 0.4 | 177±20 | 848±82 | 3.42 | 3.39 | 4.91±0.1 | 5.3 ± 0.4 | COc1ccc(-c2nc(C(=O)Nc3ccc(OC)c(OC)c3)cs2)cc1 [TC-1] | 1.1 ± 0.1 | 3.9 ± 0.4 | 1.3 ± 0.1 | IC50 ([1]; read-out: IC50): 3.3 µM; decrease in τw des [2]: around 1.3 fold; Amplitude (glutamate plus TC compound) [4]: 102±13 pA; Amplitude, applying glutamate alone after TC compound [4]: 491±61 pA; IC50 [4, 6]: 3.38 µM; IC50 [4, 5]: 3.39 µM; A/AI [4]: 4.95±0.19; t deact [4]: 5.6 ± 0.4 ms; t des [4]: 1.2 ± 0.3 ms
363±37 | 1078±112 | 5.5 | 3.17±0.02 | 3.5 ± 0.3 | 197±24 | 565±72 | 5.64 | 5.62 | 3.09±0.02 | 3.3 ± 0.3 | 287±38 | 799±95 | 5.73 | 5.75 | 2.97±0.03 | 3.0 ± 0.2 | COc1ccc(-c2nc(C(=O)Nc3ccccc3)cs2)cc1 [TC-3] | 1.7 ± 0.1 | 4.2 ± 0.3 | 2.0 ± 0.1 | IC50 [1, 6]: 5.5 µM; influence on τw des [3]: negligible; Amplitude (glutamate plus TC compound) [4]: 159±25 pA; Amplitude, applying glutamate alone after TC compound [4]: 456±76 pA; IC50 [4, 6]: 5.53 µM; IC50 [4, 5]: 5.5 µM; A/AI [4]: 3.06±0.07; t deact [4]: 3.4 ± 0.4 ms; t des [4]: 1.8 ± 0.2 ms
393±43 | 1110±101 | 5.62 | 2.91±0.07 | 3.4 ± 0.2 | 221±26 | 609±77 | 5.78 | 5.75 | 2.86±0.02 | 3.2 ± 0.4 | 331±50 | 816±114 | 5.88 | 5.89 | 2.53±0.02 | 2.9 ± 0.1 | COc1ccc(-c2nc(C(=O)Nc3ccc(C(C)(C)C)cc3)cs2)cc1 [TC-4] | 1.8 ± 0.1 | 4.4 ± 0.3 | 2.1 ± 0.1 | IC50 [1, 6]: 5.6 µM; influence on τw des [3]: negligible; Amplitude (glutamate plus TC compound) [4]: 183±36 pA; Amplitude, applying glutamate alone after TC compound [4]: 460±95 pA; IC50 [4, 6]: 5.64 µM; IC50 [4, 5]: 5.62 µM; A/AI [4]: 2.59±0.05; t deact [4]: 3.3 ± 0.3 ms; t des [4]: 1.9 ± 0.2 ms
